Results on twelve compounds are retold here after ChEMBL document CHEMBL3616445, “Design, synthesis and biological evaluation of multifunctional ligands targeting opioid and bradykinin 2 receptors” (Bioorg Med Chem Lett, 2015).

For experiment [1], the target named is T1, B2 bradykinin receptor (Rattus norvegicus, UniProt P25023).
T1 sequence (P25023 whole entry): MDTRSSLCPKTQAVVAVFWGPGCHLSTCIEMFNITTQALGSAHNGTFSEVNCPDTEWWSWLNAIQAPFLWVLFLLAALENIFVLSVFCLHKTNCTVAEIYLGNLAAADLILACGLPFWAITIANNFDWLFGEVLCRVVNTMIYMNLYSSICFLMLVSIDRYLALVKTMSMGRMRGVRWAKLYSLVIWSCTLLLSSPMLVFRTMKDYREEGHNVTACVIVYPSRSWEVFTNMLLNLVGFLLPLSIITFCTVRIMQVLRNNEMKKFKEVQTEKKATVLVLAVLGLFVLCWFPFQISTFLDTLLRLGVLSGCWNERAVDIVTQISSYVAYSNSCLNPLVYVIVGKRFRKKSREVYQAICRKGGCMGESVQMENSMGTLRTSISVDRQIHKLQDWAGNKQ
Kind of experiment: Displacement of [3H]BK from B2R in rat brain membranes by liquid scintillation counting in based radioligand competition assay. In kind it is cell membranes, Membrane.

In experiment [2] the target is Delta-type opioid receptor (Homo sapiens, UniProt P41143). Kind of experiment: Displacement of [3H]DPDPE from human delta opiod receptor. On the technique in general: Loss of bound radioactivity is the signal in a displacement assay; it reports binding, not function.
A further experiment deals with Mu-type opioid receptor (Rattus norvegicus, UniProt P33535). Kind of experiment: Displacement of [3H]DAMGO from rat mu opiod receptor.
Experiment [3] has as its target T2, B2 bradykinin receptor (Cavia porcellus, UniProt O70526).
T2 sequence (O70526 whole entry): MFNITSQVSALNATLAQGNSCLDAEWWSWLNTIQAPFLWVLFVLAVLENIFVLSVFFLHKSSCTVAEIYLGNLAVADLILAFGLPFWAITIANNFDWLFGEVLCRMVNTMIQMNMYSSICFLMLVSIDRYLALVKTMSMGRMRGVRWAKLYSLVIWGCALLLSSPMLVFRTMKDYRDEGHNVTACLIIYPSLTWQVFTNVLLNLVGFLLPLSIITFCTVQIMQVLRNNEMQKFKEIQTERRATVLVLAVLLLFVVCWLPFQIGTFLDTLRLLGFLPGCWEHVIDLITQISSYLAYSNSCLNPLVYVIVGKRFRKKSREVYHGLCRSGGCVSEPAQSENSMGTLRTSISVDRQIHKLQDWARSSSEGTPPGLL
Kind of experiment: Antagonist activity against B2R in Hartley guinea pig ileum assessed as reduction in electrically-induced response. In kind it is tissue-based.

In experiment [4] the target is T2, B2 bradykinin receptor. Kind of experiment: Binding affinity to B2R in guinea pig ileum membranes. In kind it is cell membranes, Membrane.

Square brackets hold non-standard residues; d marks the D form. Side chains are listed from the residue outwards. Peptide text beside a SMILES is read from it. Oic = O=C(O)[C@@H]1C[C@@H]2CCCC[C@@H]2N1; Hyp = O=C(O)[C@@H]1C[C@@H](O)CN1; dTic = O=C(O)[C@H]1Cc2ccccc2CN1; 2Thi = N[C@@H](Cc1cccs1)C(=O)O; Dap = NC[C@H](N)C(=O)O

Sequence of Mu-type opioid receptor (P33535 whole entry): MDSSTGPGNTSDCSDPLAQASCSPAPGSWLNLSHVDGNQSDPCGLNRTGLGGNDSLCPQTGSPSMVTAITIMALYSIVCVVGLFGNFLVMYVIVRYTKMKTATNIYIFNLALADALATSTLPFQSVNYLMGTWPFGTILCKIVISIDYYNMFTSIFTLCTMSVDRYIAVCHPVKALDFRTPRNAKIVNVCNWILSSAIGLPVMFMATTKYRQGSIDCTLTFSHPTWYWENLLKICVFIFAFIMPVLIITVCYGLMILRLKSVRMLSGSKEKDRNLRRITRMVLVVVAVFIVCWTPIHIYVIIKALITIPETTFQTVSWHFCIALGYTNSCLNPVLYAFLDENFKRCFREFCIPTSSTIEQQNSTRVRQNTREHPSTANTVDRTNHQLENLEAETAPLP
Sequence of Delta-type opioid receptor (P41143 whole entry): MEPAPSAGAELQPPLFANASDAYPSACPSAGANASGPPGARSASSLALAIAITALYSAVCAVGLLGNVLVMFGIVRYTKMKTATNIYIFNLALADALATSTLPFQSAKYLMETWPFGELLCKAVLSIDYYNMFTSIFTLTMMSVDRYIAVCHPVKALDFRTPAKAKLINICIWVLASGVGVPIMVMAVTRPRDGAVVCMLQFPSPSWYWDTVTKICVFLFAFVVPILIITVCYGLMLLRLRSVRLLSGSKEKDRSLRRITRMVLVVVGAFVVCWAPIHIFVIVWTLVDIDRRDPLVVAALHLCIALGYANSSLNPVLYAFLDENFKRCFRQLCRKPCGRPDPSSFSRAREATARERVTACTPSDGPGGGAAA

Turning to `N=C(N)NCCC[C@H](NC(=O)[C@@H]1C[C@@H]2CCCC[C@@H]2N1C(=O)[C@H]1Cc2ccccc2CN1C(=O)[C@H](CO)NC(=O)[C@H](Cc1cccs1)NC(=O)CNC(=O)[C@@H]1C[C@@H](O)CN1C(=O)[C@@H]1CCCN1C(=O)[C@H](CCCNC(=N)N)NC(=O)[C@@H](CCCNC(=N)N)NC(=O)[C@H](Cc1ccccc1)NC(=O)[C@@H]1CCCN1C(=O)[C@@H](N)Cc1ccc(O)cc1)C(=O)O`, the figures for the Ki (on B2 bradykinin receptor [1]; in experiment [2]; on Mu-type opioid receptor) were more than 10 µM, more than 10 µM and 2300 nM, respectively. The pIC50 at Mu-type opioid receptor was determined as 5.29.
With `CSCC[C@H](NC(=O)[C@H](Cc1ccccc1)NC(=O)[C@@H](C)NC(=O)[C@@H](N)Cc1ccc(O)cc1)C(=O)N[C@H](CCCNC(=N)N)C(=O)N[C@@H](CCCNC(=N)N)C(=O)N1CCC[C@H]1C(=O)N1C[C@H](O)C[C@H]1C(=O)NCC(=O)N[C@@H](Cc1cccs1)C(=O)N[C@@H](CO)C(=O)N1Cc2ccccc2C[C@@H]1C(=O)N1[C@H](C(=O)N[C@@H](CCCNC(=N)N)C(=O)O)C[C@@H]2CCCC[C@@H]21`, the Ki on B2 bradykinin receptor [1] came to 5.2 µM; in experiment [2], 6.9 µM; at Mu-type opioid receptor it was 70 nM. Besides, the IC50 on B2 bradykinin receptor [3] was 1.8 nM; in experiment [2], 17000 nM; on Mu-type opioid receptor it was 155 nM.
`N=C(N)NCCC[C@H](NC(=O)[C@@H]1C[C@@H]2CCCC[C@@H]2N1C(=O)[C@H]1Cc2ccccc2CN1C(=O)[C@H](CO)NC(=O)[C@H](Cc1cccs1)NC(=O)CNC(=O)[C@@H]1C[C@@H](O)CN1C(=O)[C@@H]1CCCN1C(=O)[C@H](CCCNC(=N)N)NC(=O)[C@@H](CCCNC(=N)N)NC(=O)[C@H](Cc1ccccc1)NC(=O)[C@H](Cc1ccccc1)NC(=O)[C@@H]1CCCN1C(=O)[C@@H](N)Cc1ccc(O)cc1)C(=O)O`: the Ki at B2 bradykinin receptor [1] is more than 10 µM; in experiment [2], more than 10 µM; on Mu-type opioid receptor, 480 nM. Moreover, the IC50 on B2 bradykinin receptor [3] is 1.9 nM. On Mu-type opioid receptor, this compound gave a pIC50 of 5.97.
For the compound `C[C@@H](NC(=O)[C@@H](N)Cc1ccc(O)cc1)C(=O)NCC(=O)N[C@@H](Cc1ccccc1)C(=O)N[C@H](CCCNC(=N)N)C(=O)N[C@@H](CCCNC(=N)N)C(=O)N1CCC[C@H]1C(=O)N1C[C@H](O)C[C@H]1C(=O)NCC(=O)N[C@@H](Cc1cccs1)C(=O)N[C@@H](CO)C(=O)N1Cc2ccccc2C[C@@H]1C(=O)N1[C@H](C(=O)N[C@@H](CCCNC(=N)N)C(=O)O)C[C@@H]2CCCC[C@@H]21`, the Ki on B2 bradykinin receptor [1] was more than 10 µM. Also, the IC50 on B2 bradykinin receptor [3] was 1.7 nM; in experiment [2], 4170 nM; at Mu-type opioid receptor, 22.9 nM.
Turning to `C[C@@H](NC(=O)[C@@H](N)Cc1ccc(O)cc1)C(=O)NCC(=O)N[C@@H](Cc1ccccc1)C(=O)NCCC(=O)N[C@H](CCCNC(=N)N)C(=O)N[C@@H](CCCNC(=N)N)C(=O)N1CCC[C@H]1C(=O)N1C[C@H](O)C[C@H]1C(=O)NCC(=O)N[C@@H](Cc1cccs1)C(=O)N[C@@H](CO)C(=O)N1Cc2ccccc2C[C@@H]1C(=O)N1[C@H](C(=O)N[C@@H](CCCNC(=N)N)C(=O)O)C[C@@H]2CCCC[C@@H]21`, the values for the IC50 (in experiment [2]; on Mu-type opioid receptor) were 91.2 nM and 3.09 nM, respectively.
With `C[C@@H](NC(=O)[C@@H](N)Cc1ccc(O)cc1)C(=O)NCC(=O)N[C@@H](Cc1ccccc1)C(=O)NCCCCCCCC(=O)N[C@H](CCCNC(=N)N)C(=O)N[C@@H](CCCNC(=N)N)C(=O)N1CCC[C@H]1C(=O)N1C[C@H](O)C[C@H]1C(=O)NCC(=O)N[C@@H](Cc1cccs1)C(=O)N[C@@H](CO)C(=O)N1Cc2ccccc2C[C@@H]1C(=O)N1[C@H](C(=O)N[C@@H](CCCNC(=N)N)C(=O)O)C[C@@H]2CCCC[C@@H]21`, the IC50 is 4.68 nM in experiment [2] and 1.23 nM at Mu-type opioid receptor.
For the compound `C[C@@H](NC(=O)[C@@H](N)Cc1ccc(O)cc1)C(=O)NCC(=O)N[C@@H](Cc1ccccc1)C(=O)NC[C@H](N)C(=O)N[C@H](CCCNC(=N)N)C(=O)N[C@@H](CCCNC(=N)N)C(=O)N1CCC[C@H]1C(=O)N1C[C@H](O)C[C@H]1C(=O)NCC(=O)N[C@@H](Cc1cccs1)C(=O)N[C@@H](CO)C(=O)N1Cc2ccccc2C[C@@H]1C(=O)N1[C@H](C(=O)N[C@@H](CCCNC(=N)N)C(=O)O)C[C@@H]2CCCC[C@@H]21`, on Mu-type opioid receptor, the IC50 is 1.41 nM and affinity was put at a Ki of 0.6 nM.
For the compound `C[C@@H](NC(=O)[C@@H](N)Cc1ccc(O)cc1)C(=O)NCC(=O)N[C@@H](Cc1ccccc1)C(=O)NC[C@H](N)C(=O)NCCC(=O)N[C@H](CCCNC(=N)N)C(=O)N[C@@H](CCCNC(=N)N)C(=O)N1CCC[C@H]1C(=O)N1C[C@H](O)C[C@H]1C(=O)NCC(=O)N[C@@H](Cc1cccs1)C(=O)N[C@@H](CO)C(=O)N1Cc2ccccc2C[C@@H]1C(=O)N1[C@H](C(=O)N[C@@H](CCCNC(=N)N)C(=O)O)C[C@@H]2CCCC[C@@H]21`, the Ki was determined as 0.007 µM in experiment [2] and 0.5 nM at Mu-type opioid receptor. For the same compound, the negative logarithm of the IC50 (pIC50) in experiment [2] is 7.77; on Mu-type opioid receptor it was 8.94.
`C[C@@H](NC(=O)[C@@H](N)Cc1ccc(O)cc1)C(=O)NCC(=O)N[C@@H](Cc1ccccc1)C(=O)NCCCCCCCC(=O)NC[C@H](N)C(=O)N[C@H](CCCNC(=N)N)C(=O)N[C@@H](CCCNC(=N)N)C(=O)N1CCC[C@H]1C(=O)N1C[C@H](O)C[C@H]1C(=O)NCC(=O)N[C@@H](Cc1cccs1)C(=O)N[C@@H](CO)C(=O)N1Cc2ccccc2C[C@@H]1C(=O)N1[C@H](C(=O)N[C@@H](CCCNC(=N)N)C(=O)O)C[C@@H]2CCCC[C@@H]21`: at Mu-type opioid receptor, the 50% inhibitory concentration (IC50) was 0.813 nM and the Ki was determined as 0.3 nM.
With `C[C@@H](NC(=O)[C@@H](N)Cc1ccc(O)cc1)C(=O)NCC(=O)N[C@@H](Cc1ccccc1)C(=O)NC[C@H](NC(=O)[C@@H]1CCCN1C(=O)[C@H](CCCNC(=N)N)NC(=O)[C@H](N)CCCNC(=N)N)C(=O)NCC(=O)N[C@@H](Cc1cccs1)C(=O)N[C@@H](CO)C(=O)N1Cc2ccccc2C[C@@H]1C(=O)N1[C@H](C(=O)N[C@@H](CCCNC(=N)N)C(=O)O)C[C@@H]2CCCC[C@@H]21`, the IC50 was 6.76 nM in experiment [2] and 4.79 nM on Mu-type opioid receptor.
For the compound `NC(N)=NCCC[C@@H](N)C(=O)N[C@@H](CCCN=C(N)N)C(=O)N1CCC[C@H]1C(=O)N1C[C@H](O)C[C@H]1C(=O)NCC(=O)N[C@@H](Cc1cccs1)C(=O)N[C@@H](CO)C(=O)N1Cc2ccccc2C[C@@H]1C(=O)N1[C@H](C(=O)N[C@@H](CCCN=C(N)N)C(=O)O)C[C@@H]2CCCC[C@@H]21`, the Ki at B2 bradykinin receptor [1] is more than 10 µM; on B2 bradykinin receptor [4], 1 nM.
Take `C[C@@H](NC(=O)[C@@H](N)Cc1ccc(O)cc1)C(=O)NCC(=O)N[C@@H](Cc1ccccc1)C(=O)NC[C@H](NC(=O)[C@H](Cc1cccs1)NC(=O)CNC(=O)[C@@H]1C[C@@H](O)CN1C(=O)[C@@H]1CCCN1C(=O)[C@H](CCCNC(=N)N)NC(=O)[C@H](N)CCCNC(=N)N)C(=O)N1Cc2ccccc2C[C@@H]1C(=O)N1[C@H](C(=O)N[C@@H](CCCNC(=N)N)C(=O)O)C[C@@H]2CCCC[C@@H]21` (H-[dR]RP[Hyp]G[2Thi][Dap]([Phe-Gly-dA-Tyr])[dTic][Oic]R-OH): the IC50 is 0.603 nM in experiment [2] and 15.5 nM on Mu-type opioid receptor.

For orientation: Ki means a measure of affinity in units of concentration, obtained from inhibition or displacement. Low readings indicate higher affinity, high ones lower affinity. A word on the pIC50: it is the IC50 on a negative log10 scale, so that one unit is a factor of ten. The IC50 is the concentration that gives 50% inhibition.
